Laboratory results as given in US20250002526A1, “PHARMACEUTICAL COMPOSITION HAVING ANTI-CANCER IMMUNOSTIMULATING EFFECT AND/OR IMMUNE CHECKPOINT INHIBITION POTENTIATING EFFECT” (KYUSHU UNIVERSITY, NATIONAL UNIVERSITY CORPORATION, priority 2021, published 2025).
Where two headings read alike, the source gives them in different places.

Assays:
[1] = target: T1, recombinant human SULT2B1b protein (Homo sapiens, UniProt O00204); experiment: SULT assay (in vitro SULT2B1b enzymatic activity measurement); format: biochemical; settings: read-out: in vitro SULT2B1b assay % activity at 200 μM
T1 sequence (O00204 1-365): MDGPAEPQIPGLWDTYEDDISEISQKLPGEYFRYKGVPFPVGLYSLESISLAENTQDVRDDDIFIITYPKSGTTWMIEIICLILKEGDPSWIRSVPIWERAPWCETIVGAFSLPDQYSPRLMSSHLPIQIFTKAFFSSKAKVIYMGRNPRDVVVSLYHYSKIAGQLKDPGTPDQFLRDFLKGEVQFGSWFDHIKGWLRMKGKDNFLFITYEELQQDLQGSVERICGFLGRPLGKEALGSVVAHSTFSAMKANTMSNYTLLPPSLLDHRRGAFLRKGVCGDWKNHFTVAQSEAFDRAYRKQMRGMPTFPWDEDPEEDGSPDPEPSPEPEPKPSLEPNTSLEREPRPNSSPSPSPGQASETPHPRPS
Description: For screening for a SULT2B1b inhibitor, enzymatic activity measurement for SULT2B1b was carried out by a method described in a previous report (NPL 2) with slight modifications.
The reaction solution (50 μl) was composed of 1 to 5 μg of recombinant human SULT2B1b protein, 10 μM [^3H]cholesterol (approximately 4,000 dpm/pmol), 10 mM Tris-HCl (pH 7.5, containing 5 mM MgCl2) containing 0.1 mM 3′-phosphoadenosine 5′-phosphosulfate (PAPS), 0.2 mM 2-hydroxypropyl-β-cyclodextrin, and 5% (v/v) ethanol. Recombinant human SULT2B1b protein was pre-incubated with 1 μl of a test compound (final concentration: 40 or 200 μM) or DMSO (control) at room temperature for 15 minutes, 2 mM PAPS (2.5 μl) was then added to initiate reaction, the resultant was reacted at 37° C. for 15 minutes, and 0.8 ml of ethanol was added to terminate the reaction.
The solution after the reaction was subjected to thin-layer chromatography (TLC) for separation, and then to a liquid scintillation counter to quantify radiolabeled CS.
From the percentage to the amount ([…]) of radiolabeled CS generated through reaction in the absence of the test compound (DMSO) (control), the SULT2B1b activity (% activity) of SULT2B1b protein in the presence of the test compound was evaluated, and the effect of the test compound to inhibit SULT2B1b-mediated CS production (CS production inhibitory effect) was evaluated.
In enzyme assay, SULT assay was performed with use of cholenoic acid as a compound to be tested at different cholesterol and PAPS concentrations (wherein 0.5 to 1 μg of recombinant human SULT2B1b protein was used, the preincubation time and reaction time were each 10 minutes), and the results were fitted to the Michaelis-Menten equation by using Prism 9 (GraphPad Software, Inc.) to perform enzyme kinetic analysis for the inhibition by cholenoic acid.
SULT assay was performed for the compounds as test compounds by the method described in (14) of “II. Experimental procedure” in Experiment Example 1 to evaluate the SULT2B1b inhibitory effects of the compounds.

[2] = tested on: SULT2B1b-mediated CS production in E0771-SULT cells; experiment: CS production inhibitory effect in E0771-SULT cells (LC/MS/MS quantification of CS); format: cell-based, mouse; settings: Mus musculus; for activity at 10 µM: relative to control (100%); for activity at 20 µM: relative to control without compound (100%); for IC50: read-out: IC50 value (CS production); for activity at 1 µM: compound groups B-D
Description: CS in each human cancer tissue sample was quantified by a method described in NPL 2. To monitor the amounts of CS and/or oxysterol generated in E0771, 3LL, EG.7-OVA, and MC38 cells irrespective of the presence or absence of SULT2B1b expression, cells of each type were seeded in a 6-well plate at 5×10^5 cells/well, and the culture supernatant and cell pellet were collected after 24 hours. Subsequently, deuterium-labeled internal standard (IS) compounds (d7-CS [[…]] and d6-25-hydroxycholesterol) were added to fractions of the culture supernatant and cell pellet, each of which was subjected to extraction with 1 mL of extraction solvent (methanol/chloroform/water=5:2:2 [v/v/v]) to extract CS and oxysterol from the culture supernatant or cell pellet.
Each sample was vigorously mixed with a vortex for 1 minute, and then ultrasonicated for 5 minutes. Thereafter, the sample was centrifuged at 16,000×g and 4° C. for 5 minutes, and the supernatant (700 μl) was collected in a clean tube. Into this, 235 μl of chloroform and 155 μl of water were added and mixed, and the resultant was then subjected to vortexing followed by centrifugation to separate into an aqueous layer and an organic layer. Subsequently, 200 μl of the lowermost layer was dried under a nitrogen flow.
The dried sample was dissolved in 50 μl of methanol, and CS and oxysterol therein were quantified by liquid chromatography-tandem mass spectrometry (LC/MS/MS) with a triple quadrupole mass spectrometer (LCMS-8060; Shimadzu Corporation) equipped with an electrospray ionization (ESI) ion source in a multiple reaction monitoring (MRM) mode.
• Column: Inertsil ODS-4 (2.1×150 mm; particle size: 3 μm; GL Sciences Inc.) • Column temperature: 40° C. • Flow rate: 0.3 ml/min • Mobile phase: (A) water/acetonitrile (1:2, v/v) containing 5 mM ammonium acetate (B) Methanol/Isopropanol (1:19, v/v) Containing 5 mM Ammonium Acetate • Gradient curve: 0 min→22 min: (B) 0%→100%, • 22 min→27 min: (B) 100%, • 27 min→27.1 min: (B) 100%→0%, • 27.1 min→30 min: (B) 0% • Injection volume: 5 μl • Mass spectrometry mode: positive and negative ion modes • Electrospray voltage: 4 kV in positive ion mode, −3.5 kV in negative ion mode • Nebulizer gas flow rate: 3.0 L/min • Drying gas flow rate: 10.0 L/min • Desolvation temperature: 250° C. • Heat block temperature: 400° C. • Detector voltage: 2.16 kV • Used were MRM mode and 2 msec of dwell time per channel.
Absolute CS and oxysterol contents were calculated from calibration curves. MRM calibration curves were prepared with chromatographic peak areas for the analytes relative to peak areas for internal standards through three times of analysis for standard solutions.
The CS production effects of test compounds (compounds 1 to 19, 21, 23, 25, and 27 to 32) were evaluated with the mouse breast cancer cell line E0771 expressing SULT2B1b (E0771-SULT cells).
Specifically, as in the above description in experimental procedure (12), E0771-SULT cells were seeded in a 6-well plate at a proportion of 5×10^5 cells/well, and cultured in the presence or absence (control) of each test compound for 24 hours. After culturing, CS generated in E0771-SULT cells was quantified by LC/MS/MS according to the description in experimental procedure (12). The CS production capacity (% activity) of cells cultured in the presence of each test compound was evaluated from the percentage relative to the CS production level (control) (100%) in E0771-SULT cells cultured in the absence of the test compound, and the CS production inhibitory effect of the test compound was evaluated.

[3] = 24 h, read-out: CS production % activity at 10 μM, E0771-SULT cells, 24 hours, test compound 10 μM (Table 1)
[4] = 24 h, read-out: CS production % activity at 10 μM, E0771-SULT cells, 24 hours, third concentration column of Table 1, head again printed 10 μM
[5] = 24 h, read-out: CS production % activity at 20 μM, E0771-SULT cells, 24 hours, test compound 20 μM
[6] = 24 h, E0771-SULT cells, 24 hours, test compound 20 μM, read-out: CS production % activity at 20 μM
[7] = test compound 200 μM, relative to DMSO control (100%)
[8] = E0771-SULT cells, 24 hours, test compound 20 μM, read-out: CS production % activity at 20 μM
[9] = E0771-SULT cells, 24 hours, read-out: CS production % activity at 1 μM

SMILES | activity at 10 µM [2, 3] | activity at 10 µM [2, 4] | activity at 20 µM [2, 5] | IC50 [2] | IC50 ([2]; E0771-SULT cells) | activity at 200 µM [1, 7] | also measured
COC(=O)CC[C@@H](C)[C@H]1CC[C@H]2[C@@H]3CC=C4C[C@@H](O)CC[C@]4(C)[C@H]3CC[C@]12C [Compound 3, methyl (R)-4-((3S,8S,9S,10R,13R,14S,17R)-3-hydroxy-10,13-dimethyl-2,3,4,7,8,9,10,11,12,13,14,15,16,17-tetradecahydro-1H-cyclopenta[a]phenanthren-17-yl)pentanoate] | 48.1% | 61.4% | 56.8% | 17.3 µM |  |  | activity at 200 µM [1]: 19%
COC(=O)CC[C@@H](C)[C@H]1CC[C@H]2[C@@H]3CC=C4C[C@@H](OC(=O)C(F)(F)F)CC[C@]4(C)[C@H]3CC[C@]12C [Compound 4, methyl (R)-4-((3S,8S,9S,10R,13R,14S,17R)-10,13-dimethyl-3-(2,2,2-trifluoroacetoxy)-2,3,4,7,8,9,10,11,12,13,14,15,16,17-tetradecahydro-1H-cyclopenta[a]phenanthren-17-yl)pentanoate] |  |  |  |  | 20 µM |  | activity at 200 µM [1]: 13.6%; activity at 10 µM ([2]; 24 h, E0771-SULT cells, 24 hours, test compound 10 μM (Table 1), read-out: CS production % activity at 10 μM): 79.2%; activity at 20 µM [2, 6]: 49.9%; activity at 10 µM ([2]; 24 h, E0771-SULT cells, 24 hours, third concentration column of Table 1, head again printed 10 μM, read-out: CS production % activity at 10 μM): 104%
CO[C@H]1CC[C@@]2(C)C(=CC[C@H]3[C@@H]4CC[C@H]([C@H](C)CCC(=O)O)[C@@]4(C)CC[C@@H]32)C1 [Compound 6, (R)-4-((3S,8S,9S,10R,13R,14S,17R)-3-methoxy-10,13-dimethyl-2,3,4,7,8,9,10,11,12,13,14,15,16,17-tetradecahydro-1H-cyclopenta[a]phenanthren-17-yl)pentanoic acid] | 74.5% | 80.7% | 70.3% | 32.4 µM |  | 22.9% | 
C[C@H](CCC(=O)N(Cc1ccccc1)Cc1ccccc1)[C@H]1CC[C@H]2[C@@H]3CC=C4C[C@@H](OC(=O)C(F)(F)F)CC[C@]4(C)[C@H]3CC[C@]12C [Compound 7, (3S,8S,9S,10R,13R,14S,17R)-17-((R)-5-(dibenzylamino)-5-oxopentan-2-yl)-10,13-dimethyl-2,3,4,7,8,9,10,11,12,13,14,15,16,17-tetradecahydro-1H-cyclopenta[a]phenanthren-3-yl 2,2,2-trifluoroacetate] | 59% | 74.6% | 57.8% | 17.3 µM |  | 6.4% | 
CCCCNC(=O)CC[C@@H](C)[C@H]1CC[C@H]2[C@@H]3CC=C4C[C@@H](OC(=O)C(F)(F)F)CC[C@]4(C)[C@H]3CC[C@]12C [Compound 8, (3S,8S,9S,10R,13R,14S,17R)-17-((R)-5-(butylamino)-5-oxopentan-2-yl)-10,13-dimethyl-2,3,4,7,8,9,10,11,12,13,14,15,16,17-tetradecahydro-1H-cyclopenta[a]phenanthren-3-yl 2,2,2-trifluoroacetate] | 70.6% | 83.6% | 60.2% | 42.5 µM |  | 10.7% | 
C#C[C@]1(O)CC[C@H]2[C@@H]3CC=C4C[C@@H](O)CC[C@]4(C)[C@H]3CC[C@@]21C [Compound 29, (3S,8R,9S,10R,13S,14S,17R)-17-ethynyl-10,13-dimethyl-2,3,4,7,8,9,10,11,12,13,14,15,16,17-tetradecahydro-1H-cyclopenta[a]phenanthrene-3,17-diol] |  |  | 45% | 11.8 µM |  |  | activity at 1 µM ([2]; 24 h, read-out: CS production % activity at 1 μM, E0771-SULT cells, 24 hours): 50.1%
C#CC1(OC(C)=O)CCC2C3CCC4=CC(=O)CCC4C3CCC21C (stereo not shown) [Compound 30, 19-norethisterone-acetate, reference compound] |  |  |  |  | 34.3 µM |  | activity at 20 µM [2, 8]: 61.9%; activity at 1 µM [2, 9]: 80.1%
C#CC1(O)CCC2C3CCC4=CC(=O)CCC4C3CCC21C (stereo not shown) [Compound 31, 19-norethindrone, reference compound] |  |  |  |  | 68.4 µM |  | activity at 20 µM [2, 8]: 77.5%; activity at 1 µM [2, 9]: 82.8%
CC1(C2CC[C@H]3[C@@H]4CC=C5C[C@@H](O)CC[C@]5(C)[C@H]4CC[C@]23C)CS1 (stereo partly drawn) [Compound 32, (3S,8S,9S,10R,13S,14S)-10,13-dimethyl-17-(2-methylthiiran-2-yl)-2,3,4,7,8,9,10,11,12,13,14,15,16,17-tetradecahydro-1H-cyclopenta[a]phenanthren-3-ol] |  |  |  |  | 12.8 µM |  | activity at 20 µM [2, 6]: 54.8%; activity at 1 µM ([2]; 24 h, E0771-SULT cells, 24 hours, read-out: CS production % activity at 1 μM): 49.7%
